Our source for the Emax, EC50 and IC50 values is US5907038A, “Azepanes” (Hoffmann-La Roche Inc., priority 1995, dated 1999).

SMILES strings stand for the structures. Counter-ions that a name gives are not always drawn.

For one assay, the system named is Mouse Hair Follicle. The assay can be described thus: Cell proliferation in cultured mouse hair follicles (3H-thymidine incorporation, DNA synthesis). The format is cell-based, mouse (CD-1). As to conditions: for Emax: 3H-thymidine incorporation as percentage of control, whisker follicles of 4-day-old CD-1 mice, read-out: Mouse Hair Follicle DNA Synthesis Maximal Stimulation; for EC50: concentration giving 50% of the maximal stimulation of DNA synthesis. The procedure: C: Cell proliferation in cultured mouse hair follicles Mouse whisker follicles were isolated and cultured according to the method described by Buhl et al., J. Invest. Dermatol. 92, 315-320 (1989). Whisker pads were removed from 4-day-old CD-1 mice and vibrissae were carefully separated from the surrounding tissue with forceps under a dissecting microscope. Four hair follicles were incubated at 37° C. in 2 cm^2 wells in 1 ml of M199 medium containing 20% fetal bovine serum, in the presence or absence of test compound at varying concentrations. Each treatment group consisted of four wells. After 1 day of culture. ^3 H-thymidine was added to the wells to a final concentration of 5 μCi/ml and the follicles were incubated for a further three days. The follicles were then washed with phosphate-buffered saline and incorporated radioactivity was solubilized by addition of 0.5 ml of 1.0M NaOH and incubation for 18 h at 37° C. An aliquot of the alkali extracted was taken for measurement of radioactivity and results were expressed as dpm/follicle. Calculation of maximal stimulation and ED50 values The hair follicle ^3 H-thymidine incorporation values (dpm/follicle), obtained as described above, were then expressed as a percentage of control levels as follows: % control DNA synthesis for test compound=((treatment dpm/follicle)/(control dpm/follicle))×100 The dose-response relationship for each compound was then used to determine: 1) the maximal stimulation of DNA synthesis obtained for that compound, expressed as a percentage of control levels, and 2) the ED50 value, or the concentration (μM) of compound that gave rise to 50% of the maximal stimulation of DNA synthesis.

In the next assay the target is protein kinase C (PKC). The assay can be described thus: Inhibition of protein kinase C (PKC) (isolated enzyme). As to conditions: partially purified PKC from swine brain; histone H1 substrate; 32° C., 2 minutes; read-out: IC50 (Test Procedure A). It counts as biochemical. The procedure: A: Inhibition of protein kinase C (PKC) (isolated enzyme): Protein kinase C (PKC) activity is determined by measuring the transfer of ^32 P-labelled phosphate from ^32 P-g-ATP ([…]) to histone H1 ([…]) as the substrate. Partially purified PKC from swine brain is used as the enzyme source [DEAE chromatography according to the method of U. Kikkawa et al. (Methods Enzymol. 99, 288, 1983)]. Activation of the PKC is effected by phospholipid vesicle prepared by ultrasound treatment of a mixture of 0.05 ml of phosphatidylserine (10 mg/ml) and 0.005 ml of diolein (10 mg/ml) in 5 ml of Tris-HCl buffer (20 mM, pH 7.4). The test substances are used in dimethyl sulphoxide (DMSO)/buffer in the concentration range […]. The test is started by the addition of enzyme; after incubation at 32° C. for 2 minutes the reaction is stopped by the addition of 20% trichloroacetic acid (with 1% SDS and 1% sodium pyrophosphate). The precipitated radioactive histone protein is separated from excess ATP by filtration over nitrocellulose membranes and the radioactivity on the filter is measured in a scintillation counter. The inhibitory activity of the test substance is given as the micromolar concentration which is required to reduce the PKC activity by 50% ([…]).

For assay [1], the target named is cAMP-dependent protein kinase (PKA). The assay can be described thus: Inhibition of cAMP-dependent protein kinase (PKA). The format is biochemical. As to conditions: partially purified PKA from swine brain; histone H1 substrate; cyclic AMP activation; 32° C., 2 minutes; read-out: IC50 (Test Procedure B). The method, then: B: Inhibition of cAMP-dependent protein kinase (PKA): PKA activity is determined by measuring the transfer of ^32 P-labelled phosphate from ^32 P-g-ATP ([…]) to histone H1 ([…]) as the substrate. Partially purified PKA from swine brain is used as the enzyme source [DEAE chromatography according to the method of U. Kikkawa et al. (Methods Enzymol. 99, 288, 1983)]. Activation of the PKA is effected by cyclic AMP (2 mM) in Tris-HCl buffer (20 mM, pH 7.4). The test substances are used in dimethyl sulfoxide (DMSO)/buffer in the concentration range […]. The test is started by the addition of enzyme; after incubation at 32° C. for 2 minutes the reaction is stopped by the addition of 20% trichloroacetic acid (with 1% SDS and 1% sodium pyrophosphate). The precipitated radioactive histone protein is separated from excess ATP by filtration over nitrocellulose membranes and the radioactivity on the filter is measured in a scintillation counter. The inhibitory activity of the test substance is given as the micromolar concentration which is required to reduce the PKA activity by 50% ([…]).

On to `O=C(N[C@@H]1CNCCC[C@H]1OC(=O)c1ccc(S(=O)(=O)Oc2ccccc2O)cc1)c1ccc(O)cc1` [I/28, 4-(2-Hydroxy-phenoxysulfonyl)-benzoic acid (3R,4R)-3-(4-hydroxy-benzoylamino)-azepan-4-yl ester hydrochloride (1:1)], for which, in the assay with Mouse Hair Follicle, the Emax came to 349 ± 25% and the midpoint of the response, the EC50, lay at 40 µM.
On to `COc1cc2c(O)cccc2cc1C(=O)O[C@@H]1CCCNC[C@H]1NC(=O)c1ccc(O)cc1` [I/19, 5-Hydroxy-3-methoxy-naphthalene-2-carboxylic acid (3R,4R)-3-(4-hydroxy-benzoylamino)-azepan-4-yl ester trifluoroacetate (1:1)], for which the IC50 at protein kinase C (PKC) was found to be 24 µM. Besides, in the assay with Mouse Hair Follicle, the Emax is 371 ± 50% and the midpoint of the response, the EC50, lay at 30 µM. Further, the IC50 in assay [1] is 0.041 µM.
For `O=C(N[C@@H]1CNCCC[C@H]1OC(=O)c1ccc(O)cc1)c1ccc(OC(=O)c2c(O)cccc2O)cc1` [II/1, 4-Hydroxy-benzoic acid (3R,4R)-3-[4-(2,6-dihydroxy-benzoyloxy)-benzoylamino]-azepan-4-yl ester trifluoroacetate (1:1)], at protein kinase C (PKC), the IC50 stood at 30 µM. Further, in the assay on Mouse Hair Follicle, the Emax was 468 ± 26% and it took 10 µM to reach a half-maximal effect (EC50). The IC50 in assay [1] came out at 0.038 µM.
Turning to `O=C(N[C@@H]1CNCCC[C@H]1OC(=O)c1ccc(O)cc1)c1ccc(O)cc1` [III/1, 4-Hydroxy-benzoic acid (3R,4R)-3-(4-hydroxy-benzoylamino)-azepan-4-yl ester hydrochloride (1:1)], the IC50 at protein kinase C (PKC) stood at 10 µM; in assay [1], 0.026 µM. Besides, in the assay with Mouse Hair Follicle, the Emax was 534 ± 52%. Moreover, the EC50 in the assay on Mouse Hair Follicle was found to be 5 µM.
For `CN(C(=O)c1ccccc1O)c1ccc(C(=O)O[C@@H]2CCCNC[C@H]2NC(=O)c2ccc(O)cc2)cc1` [I/25, 4-[(2-Hydroxy-benzoyl)-methyl-amino]-benzoic acid (3R,4R)-3-(4-hydroxy-benzoylamino)-azepan-4-yl ester trifluoroacetate (1:1)], the IC50 at protein kinase C (PKC) was 26 µM; in assay [1] it was 1.9 µM.
In the case of `O=C(N[C@@H]1CNCCC[C@H]1OC(=O)c1ccc(O)c(O)c1)c1ccc(O)cc1` [I/15, 3,4-Dihydroxy-benzoic acid (3R,4R)-3-(4-hydroxy-benzoylamino)-azepan-4-yl ester trifluoroacetate (1:1)], the IC50 stood at 8.8 µM on protein kinase C (PKC) and 0.07 µM in assay [1].
